The target of assay [1] is T1, DNA-PKcs (Mus musculus, UniProt P97313).
T1 construct: endogenous in cells
Briefly: p38 MAPK activation in pre-activated WT and B7-H1 KO T cells cultured with DNA-PKcs inhibitor. The assay is classed as cell-based. Here is the method:
NU7026 (2-(morpholin-4-yl)-benzo[h]chomen-4-one) is a DNA-PKcs inhibitor. […] NU7026 is added into cultures with pre-activated WT and B7-H1 KO T cells and after 24-72 hours of incubation, the activation of p38 is measured in the cells. As a consequence of p38 MAPK activation regulated by NU7026, the level of Bcl-xL also is measured in the T cells after treatment with NU7026. If p38 activation is regulated by DNA-PKcs, changes in p38 activation in the presence of NU7026 would be observed in WT T cells. If B7-H1 requires DNA-PKcs to regulate activation of p38 MAPK, NU7026 would induce significant changes in p38 MAPK activation in WT T cells, but not in B7-H1 KO T cells. […] Bcl-xL levels would change accordingly with the changes in p38 MAPK activation. In addition to inhibition of DNA-PKcs activity by NU7026, the impact of total DNA-PKcs protein levels on p38 MAPK activation is evaluated. siRNA-mediated knockdown of DNA-PKcs is known to result in reduced ERK activation in mouse macrophages (Yotsumoto et al., supra). Using a similar approach, experiments are conducted to test whether down-regulation of DNA-PKcs in T cells affects p38 MAPK activation in WT and B7-H1 KO T cells. Preliminary data predicts a potential link between DNA-PK and activation of p38 MAPK. […]

Assay [2] concerns the target DNA-PK (Homo sapiens, UniProt P78527). The conditions noted are these: 10 μM; cited from earlier work.

T1 sequence (P97313 whole entry): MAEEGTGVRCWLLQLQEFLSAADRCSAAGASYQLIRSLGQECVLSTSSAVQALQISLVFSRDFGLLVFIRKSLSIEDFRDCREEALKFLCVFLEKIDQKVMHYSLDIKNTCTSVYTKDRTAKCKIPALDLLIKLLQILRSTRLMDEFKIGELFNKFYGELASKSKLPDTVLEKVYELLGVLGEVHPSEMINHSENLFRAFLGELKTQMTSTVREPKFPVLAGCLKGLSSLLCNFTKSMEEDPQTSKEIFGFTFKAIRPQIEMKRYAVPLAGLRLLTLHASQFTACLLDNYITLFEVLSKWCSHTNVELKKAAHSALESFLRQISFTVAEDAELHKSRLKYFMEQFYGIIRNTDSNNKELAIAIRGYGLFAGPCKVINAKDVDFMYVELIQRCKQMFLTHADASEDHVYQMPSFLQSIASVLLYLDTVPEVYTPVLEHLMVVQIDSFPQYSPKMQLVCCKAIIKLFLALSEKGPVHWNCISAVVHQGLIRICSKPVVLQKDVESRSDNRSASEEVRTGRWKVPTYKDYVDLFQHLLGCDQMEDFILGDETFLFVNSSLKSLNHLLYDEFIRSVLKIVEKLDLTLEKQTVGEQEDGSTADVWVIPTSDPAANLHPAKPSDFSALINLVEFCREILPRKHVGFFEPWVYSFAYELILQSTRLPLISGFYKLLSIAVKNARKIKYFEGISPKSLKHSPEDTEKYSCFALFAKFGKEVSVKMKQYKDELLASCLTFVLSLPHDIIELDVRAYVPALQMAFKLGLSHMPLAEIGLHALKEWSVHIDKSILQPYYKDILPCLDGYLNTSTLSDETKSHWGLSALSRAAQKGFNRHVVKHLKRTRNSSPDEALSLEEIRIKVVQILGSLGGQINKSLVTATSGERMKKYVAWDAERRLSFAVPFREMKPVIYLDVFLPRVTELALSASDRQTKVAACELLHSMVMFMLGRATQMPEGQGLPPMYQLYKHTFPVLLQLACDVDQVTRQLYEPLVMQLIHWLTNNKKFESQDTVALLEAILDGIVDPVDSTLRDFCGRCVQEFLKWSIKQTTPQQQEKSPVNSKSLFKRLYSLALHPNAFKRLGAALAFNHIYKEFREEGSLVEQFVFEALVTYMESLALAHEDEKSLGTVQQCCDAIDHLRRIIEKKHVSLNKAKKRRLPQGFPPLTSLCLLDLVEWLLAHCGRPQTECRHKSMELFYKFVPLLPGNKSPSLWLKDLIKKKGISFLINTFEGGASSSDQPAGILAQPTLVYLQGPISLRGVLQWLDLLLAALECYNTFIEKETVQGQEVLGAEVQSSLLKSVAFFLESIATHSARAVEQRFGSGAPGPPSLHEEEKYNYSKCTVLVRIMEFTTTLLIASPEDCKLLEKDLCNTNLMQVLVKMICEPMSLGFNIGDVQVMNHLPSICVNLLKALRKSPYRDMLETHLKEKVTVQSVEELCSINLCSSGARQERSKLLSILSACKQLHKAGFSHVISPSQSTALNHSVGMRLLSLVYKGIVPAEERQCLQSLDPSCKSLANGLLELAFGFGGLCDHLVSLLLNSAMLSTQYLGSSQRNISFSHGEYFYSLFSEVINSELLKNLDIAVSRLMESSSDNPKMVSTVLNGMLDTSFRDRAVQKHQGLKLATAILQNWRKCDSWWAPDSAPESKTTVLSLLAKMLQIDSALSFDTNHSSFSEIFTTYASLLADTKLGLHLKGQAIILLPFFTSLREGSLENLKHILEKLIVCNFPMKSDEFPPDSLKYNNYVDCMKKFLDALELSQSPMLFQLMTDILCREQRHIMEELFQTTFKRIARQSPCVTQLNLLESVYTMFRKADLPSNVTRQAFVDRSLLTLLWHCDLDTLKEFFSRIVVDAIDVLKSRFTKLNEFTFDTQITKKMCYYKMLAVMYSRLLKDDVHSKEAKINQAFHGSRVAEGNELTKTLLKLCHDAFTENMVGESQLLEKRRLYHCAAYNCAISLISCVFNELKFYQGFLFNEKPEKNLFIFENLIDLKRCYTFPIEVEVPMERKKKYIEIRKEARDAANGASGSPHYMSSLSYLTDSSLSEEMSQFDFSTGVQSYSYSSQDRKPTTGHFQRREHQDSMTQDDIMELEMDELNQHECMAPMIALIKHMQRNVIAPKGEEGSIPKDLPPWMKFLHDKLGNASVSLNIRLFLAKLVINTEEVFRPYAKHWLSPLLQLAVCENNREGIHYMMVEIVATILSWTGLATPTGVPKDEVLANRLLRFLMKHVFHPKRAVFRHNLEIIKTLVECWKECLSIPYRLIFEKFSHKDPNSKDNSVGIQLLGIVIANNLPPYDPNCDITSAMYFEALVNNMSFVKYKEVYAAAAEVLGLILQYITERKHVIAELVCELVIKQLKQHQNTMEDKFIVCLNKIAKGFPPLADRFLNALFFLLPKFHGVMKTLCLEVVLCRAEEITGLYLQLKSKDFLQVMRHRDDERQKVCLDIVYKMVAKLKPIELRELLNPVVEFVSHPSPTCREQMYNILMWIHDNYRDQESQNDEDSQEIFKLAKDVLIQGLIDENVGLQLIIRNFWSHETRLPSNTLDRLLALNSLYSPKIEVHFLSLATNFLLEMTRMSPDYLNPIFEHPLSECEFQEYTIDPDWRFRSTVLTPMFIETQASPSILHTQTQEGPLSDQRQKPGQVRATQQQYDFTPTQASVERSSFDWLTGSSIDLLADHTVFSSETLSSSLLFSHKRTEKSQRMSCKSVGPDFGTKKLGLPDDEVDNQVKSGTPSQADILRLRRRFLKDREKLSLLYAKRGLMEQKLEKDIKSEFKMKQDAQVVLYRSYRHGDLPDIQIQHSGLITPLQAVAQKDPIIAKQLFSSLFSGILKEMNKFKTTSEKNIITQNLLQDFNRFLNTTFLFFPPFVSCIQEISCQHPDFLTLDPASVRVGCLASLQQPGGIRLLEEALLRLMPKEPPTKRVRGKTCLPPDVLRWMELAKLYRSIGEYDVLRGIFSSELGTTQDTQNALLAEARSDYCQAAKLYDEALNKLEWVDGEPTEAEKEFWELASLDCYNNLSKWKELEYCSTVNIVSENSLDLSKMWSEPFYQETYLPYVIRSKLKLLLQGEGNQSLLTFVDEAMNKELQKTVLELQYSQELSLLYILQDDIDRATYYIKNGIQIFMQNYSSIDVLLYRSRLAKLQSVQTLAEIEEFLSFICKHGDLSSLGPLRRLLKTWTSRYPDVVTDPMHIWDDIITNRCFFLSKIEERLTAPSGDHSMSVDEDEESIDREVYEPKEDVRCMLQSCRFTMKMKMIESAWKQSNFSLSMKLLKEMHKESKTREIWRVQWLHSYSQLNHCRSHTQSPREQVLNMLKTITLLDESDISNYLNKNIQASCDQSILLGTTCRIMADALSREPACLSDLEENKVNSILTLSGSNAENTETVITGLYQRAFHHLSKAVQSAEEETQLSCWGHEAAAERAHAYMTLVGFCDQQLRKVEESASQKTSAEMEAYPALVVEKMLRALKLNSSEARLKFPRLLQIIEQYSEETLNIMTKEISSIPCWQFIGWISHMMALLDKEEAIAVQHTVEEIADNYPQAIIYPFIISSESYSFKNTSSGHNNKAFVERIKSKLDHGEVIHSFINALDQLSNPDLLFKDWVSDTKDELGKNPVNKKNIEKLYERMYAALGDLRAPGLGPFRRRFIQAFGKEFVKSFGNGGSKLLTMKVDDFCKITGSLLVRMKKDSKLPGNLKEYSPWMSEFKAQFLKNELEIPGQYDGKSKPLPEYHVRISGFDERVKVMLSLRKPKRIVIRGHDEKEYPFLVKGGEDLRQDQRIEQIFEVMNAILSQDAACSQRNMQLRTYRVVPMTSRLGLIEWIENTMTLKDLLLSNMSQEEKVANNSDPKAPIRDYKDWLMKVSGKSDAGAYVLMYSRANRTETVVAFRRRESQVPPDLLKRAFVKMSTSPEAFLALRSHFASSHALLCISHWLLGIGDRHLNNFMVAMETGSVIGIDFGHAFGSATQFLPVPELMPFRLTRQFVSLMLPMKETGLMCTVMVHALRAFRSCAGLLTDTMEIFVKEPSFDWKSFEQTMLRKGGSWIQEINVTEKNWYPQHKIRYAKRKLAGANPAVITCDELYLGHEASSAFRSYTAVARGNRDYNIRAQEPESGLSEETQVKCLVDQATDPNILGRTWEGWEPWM

For the compound `O=c1cc(N2CCOCC2)oc2c1ccc1ccccc12` [NU7026, 2-(morpholin-4-yl)-benzo[h]chomen-4-one], the “p38 MAPK activation in WT T cells” value in assay [1] is recorded as “increased”. In addition, the “inhibition of activity of purified DNA-PK” value in assay [2] is on record as “completely inhibit”.
